The values that follow come from ChEMBL document CHEMBL3758177, “Synthesis and biological evaluation of novel phosphoramidate derivatives of coumarin as chitin synthase inhibitors and antifungal agents” (Eur J Med Chem, 2016).

Values after ≈ are worked out from the molar mass of the structure shown.

Test [1] concerns Candida albicans. Briefly: Antifungal activity against Candida albicans CMCC 76615 after seven days by disc diffusion method. Format: functional. For orientation: Agar diffusion results depend on both activity and mobility in agar.
For test [2], the system named is Fusarium oxysporum. The test can be described thus: Antifungal activity against Fusarium oxysporum ITCC 6246 after 48 hrs by microdilution method. Type of test: functional. The conditions noted are these: ITCC 6246, 48 h.
Test [3] deals with Candida albicans. The test can be described thus: Antifungal activity against Candida albicans CMCC 76615 after 48 hrs by microdilution method. Type of test: functional. The conditions noted are these: CMCC 76615, 48 h. (In general: Broth dilution looks for growth in wells or tubes with falling amounts of substance.)
In the next test the test system is Aspergillus flavus. Briefly: Antifungal activity against Aspergillus flavus ATCC 16870 after 24 hrs by two-fold serial dilution method. Format: functional. The conditions noted are these: ATCC 16870, 24 h.
A further test concerns Aspergillus fumigatus. The test can be described thus: Antifungal activity against Aspergillus fumigatus GIMCC 3.19 after 24 hrs by two-fold serial dilution method. Conditions: GIMCC 3.19, 24 h. Format: functional.
Another test relates to Cryptococcus neoformans. The test can be described thus: Antifungal activity against Cryptococcus neoformans ATCC 32719 after 24 hrs by two-fold serial dilution method. Conditions: ATCC 32719, 24 h. Type of test: functional.
Test [4] in a line: Non-competitive inhibition of Candida tropicalis ATCC 750 chitin synthase using UDP-GlcNAc as substrate by Lineweaver-Burk plot analysis.
In test [5] the test system is Staphylococcus aureus. Briefly: Antibacterial activity against Methicillin-resistant Staphylococcus aureus N 315 after 24 hrs by two-fold serial dilution method. Format: functional. Conditions: N 315, 24 h.
Test [6] relates to Staphylococcus aureus. The test can be described thus: Antibacterial activity against Staphylococcus aureus ATCC 25923 after 24 hrs by two-fold serial dilution method. Format: functional. The conditions noted are these: ATCC 25923, 24 h.
The test system of a further test is Bacillus spizizenii. Briefly: Antibacterial activity against Bacillus subtilis ATCC 6633 after 24 hrs by two-fold serial dilution method. Format: functional. The conditions noted are these: ATCC 6633, 24 h.
In another test the test system is Proteus vulgaris. Briefly: Antibacterial activity against Proteus vulgaris ATCC 8427 after 24 hrs by two-fold serial dilution method. Format: functional. Conditions: ATCC 8427, 24 h.
The test system of the next test is Pseudomonas aeruginosa. Briefly: Antibacterial activity against Pseudomonas aeruginosa ATCC 9027 after 24 hrs by two-fold serial dilution method. Type of test: functional. The conditions noted are these: ATCC 9027, 24 h.
For a further test, the system named is Escherichia coli. The test can be described thus: Antibacterial activity against Escherichia coli JM 109 after 24 hrs by two-fold serial dilution method. Type of test: functional. Conditions: JM 109, 24 h.
For another test, the system named is Candida tropicalis. The test can be described thus: Inhibition of Candida tropicalis ATCC 750 chitin synthase using UDP-GlcNAc as substrate at 300 ug/ml after 60 mins by microplate reader method.
Test [7] in a line: Inhibition of Candida tropicalis ATCC 750 chitin synthase using UDP-GlcNAc as substrate after 60 mins by microplate reader method.
Test [8] deals with Candida albicans. The test can be described thus: Antifungal activity against Candida albicans CMCC 76615 after 24 hrs by two-fold serial dilution method. Conditions: CMCC 76615, 24 h. Format: functional.
Test [9] relates to Fusarium oxysporum. The test can be described thus: Antifungal activity against Fusarium oxysporum ITCC 6246 after 48 hrs by micro-titer plate method. Format: functional. Conditions: ITCC 6246, 48 h.

Turning to `O=c1oc2ccccc2c(Cl)c1/C=N/c1nncs1`, in the test on Candida albicans [1], the “diameter of the inhibition zone (DIZ)” value turned out to be 15 mm.

Broadly, the MIC is the lowest concentration that inhibits growth of the organism. A higher MIC goes with a need for much substance. As for `Cc1ccc(NS(=O)(=O)c2cc3c(CN=[N+]=[N-])cc(=O)oc3cc2C)cc1`, the minimum inhibitory concentration (MIC) in the test on Fusarium oxysporum [2] and in the test with Candida albicans [3] was 1 µg/mL (≈ 2.6 µM) in each case.

As usually defined, the Ki is the equilibrium dissociation constant of an inhibitor or competing ligand from its target. As a reminder, the inhibition is the relative decrease from the control value, in per cent. A high value points to a response far below the control. A word on the IC50: it is the concentration that inhibits the measured activity by half. Higher therefore signals weaker potency. `COC(=O)C(Cc1ccccc1)NP(=O)(OCCN(C)c1cc(=O)oc2ccc(C(C)(C)C)cc12)Oc1ccccc1` (stereo unspecified): the minimum inhibitory concentration (MIC) with Aspergillus flavus came to 2 µg/mL (≈ 3.37 µM); with Aspergillus fumigatus, 32 µg/mL (≈ 54 µM); against Cryptococcus neoformans it was 8 µg/mL (≈ 13.5 µM); in the test on Staphylococcus aureus [5] it was 128 µg/mL (≈ 216 µM); against Staphylococcus aureus [6] it was 8 µg/mL (≈ 13.5 µM); against Bacillus spizizenii, 32 µg/mL (≈ 54 µM). Also, the MIC against Proteus vulgaris was found to be 16 µg/mL (≈ 27 µM); in the test on Pseudomonas aeruginosa, 16 µg/mL (≈ 27 µM); in the test with Escherichia coli it was 16 µg/mL (≈ 27 µM); in the test with Candida albicans [8] it was 8 µg/mL (≈ 13.5 µM). Further, in [4], the affinity, expressed as Ki, was 96 µM. Moreover, the inhibition in the test with Candida tropicalis amounted to 90%. Inhibition in [7] was half-maximal at 80 µM (IC50).

`COC(=O)CNP(=O)(OCCN(C)c1cc(=O)oc2ccc(C)cc12)Oc1ccccc1` (stereo unspecified): the MIC is 64 µg/mL (≈ 139 µM) against Aspergillus flavus; 64 µg/mL (≈ 139 µM) in the test with Aspergillus fumigatus; 64 µg/mL (≈ 139 µM) in the test with Cryptococcus neoformans; 256 µg/mL (≈ 556 µM) with Staphylococcus aureus [5]; 256 µg/mL (≈ 556 µM) in the test on Staphylococcus aureus [6]; 256 µg/mL (≈ 556 µM) against Bacillus spizizenii. In addition, the minimum inhibitory concentration (MIC) worked out at 512 µg/mL (≈ 1110 µM) against Proteus vulgaris, 128 µg/mL (≈ 278 µM) with Pseudomonas aeruginosa, 512 µg/mL (≈ 1110 µM) in the test on Escherichia coli and 128 µg/mL (≈ 278 µM) against Candida albicans [8]. The inhibition in the test with Candida tropicalis was 51%. Besides, in [7], the IC50 worked out at 600 µM.

As for `COC(=O)CNP(=O)(OCCN(C)c1cc(=O)oc2c(C)cccc12)Oc1ccccc1` (stereo unspecified), the minimal inhibitory concentration (MIC) in the test with Aspergillus flavus was 64 µg/mL (≈ 139 µM); with Aspergillus fumigatus it was 128 µg/mL (≈ 278 µM); against Cryptococcus neoformans, 64 µg/mL (≈ 139 µM); in the test with Staphylococcus aureus [5], 256 µg/mL (≈ 556 µM); in the test on Staphylococcus aureus [6], 128 µg/mL (≈ 278 µM); in the test on Bacillus spizizenii it was 512 µg/mL (≈ 1110 µM). Moreover, the MIC in the test on Proteus vulgaris was determined as 256 µg/mL (≈ 556 µM); against Pseudomonas aeruginosa, 256 µg/mL (≈ 556 µM); against Escherichia coli, 32 µg/mL (≈ 69.5 µM); against Candida albicans [8], 64 µg/mL (≈ 139 µM). This compound also showed an inhibition in the test on Candida tropicalis of 55%. In test [7], this compound came in with an IC50 of 450 µM.

For `COC(=O)CNP(=O)(OCCN(C)c1cc(=O)oc2ccccc12)Oc1ccccc1` (stereo unspecified), the minimum inhibitory concentration (MIC) in the test on Aspergillus flavus was 128 µg/mL (≈ 287 µM); against Aspergillus fumigatus, 128 µg/mL (≈ 287 µM); in the test with Cryptococcus neoformans, 64 µg/mL (≈ 143 µM); with Staphylococcus aureus [5], 256 µg/mL (≈ 573 µM); against Staphylococcus aureus [6], 256 µg/mL (≈ 573 µM); in the test with Bacillus spizizenii, 512 µg/mL (≈ 1150 µM). Also, the MIC against Proteus vulgaris is 512 µg/mL (≈ 1150 µM); in the test with Pseudomonas aeruginosa, 256 µg/mL (≈ 573 µM); in the test on Escherichia coli it was 128 µg/mL (≈ 287 µM); against Candida albicans [8] it was 64 µg/mL (≈ 143 µM). In the test on Candida tropicalis, the inhibition stood at 49%. In test [7], this compound showed a half-inhibitory concentration (IC50) of 640 µM.

Consider `COC(=O)C(Cc1ccccc1)NP(=O)(OCCN(C)c1cc(=O)oc2ccccc12)Oc1ccccc1` (stereo unspecified), for which the minimum inhibitory concentration (MIC) with Aspergillus flavus was 8 µg/mL (≈ 14.9 µM); in the test with Aspergillus fumigatus it was 128 µg/mL (≈ 239 µM); in the test with Cryptococcus neoformans, 64 µg/mL (≈ 119 µM); against Staphylococcus aureus [5], 128 µg/mL (≈ 239 µM); in the test with Staphylococcus aureus [6], 64 µg/mL (≈ 119 µM); in the test with Bacillus spizizenii it was 128 µg/mL (≈ 239 µM). Besides, the minimum inhibitory concentration (MIC) stood at 16 µg/mL (≈ 29.8 µM) with Proteus vulgaris, 64 µg/mL (≈ 119 µM) with Pseudomonas aeruginosa, 64 µg/mL (≈ 119 µM) with Escherichia coli and 64 µg/mL (≈ 119 µM) with Candida albicans [8]. The compound also showed an inhibition in the test on Candida tropicalis of 59%. In addition, the IC50 in [7] is 250 µM.

With `C=C1CC(CC/C(C)=C\COc2ccc3ccc(=O)oc3c2)OC1=O` (stereo unspecified), the minimal inhibitory concentration (MIC) with Fusarium oxysporum [9] was 19 µg/mL (≈ 55.8 µM).

For `OC(Cn1cncn1)(Cn1cncn1)c1ccc(F)cc1F` [FLUCONAZOLE], the minimal inhibitory concentration (MIC) against Aspergillus flavus was found to be 32 µg/mL (≈ 104 µM); in the test with Aspergillus fumigatus, 32 µg/mL (≈ 104 µM); in the test on Cryptococcus neoformans, 8 µg/mL (≈ 26.1 µM); in the test with Fusarium oxysporum [2] it was 8 µg/mL (≈ 26.1 µM); against Candida albicans [3], 8 µg/mL (≈ 26.1 µM); against Candida albicans [8], 16 µg/mL (≈ 52.2 µM).
